The subject of test [1] is TNFα secretion in RAW 264.7 macrophages. The experiment in a line: TNFα release assay in RAW 264.7 macrophages stimulated with LPS. The class given is cell-based, mouse.
Protocol: The purpose of this assay is to measure the ability of small molecules to inhibit the secretion of TNFα in cultured macrophages stimulated with lipopolysaccharide (LPS). […] Dexamethasone, a potert agonist of the glucocorticoid receptor is used a positive control for inhibition of TNFα release.
Day 1: Seed RAW 264.7 macrophages into 96 well culture plates. Remove culture media from RAW 264.7 cell growing in a 75 mm^2 tissue culture flask (cells should be at ˜70% confluence) and add 10 mL of warmed complete growth media (DMEM+10% FBS+1× pen/step). The cells are scraped into suspension using a sterile plate scraper and homogenized by pipetting up and down with a 10 mL serological pipette. The cell concentration is determined using a clinical hematoctyometer. Cells are then diluted to 150,000 cells per mL into growth media. […]
Day 2: The test compound sample plate is prepared. […] Add 100 μl of Celltiter-glo reagent to each well of the cell culture plate and afterwards measure the luminescence signal (CPS) of the plate using the Victor 5 plate reader (0.3 second read; 60 second plate shaking prior to read). […]
Use 20 μl of media supernatant per well for TNFα ELISA. […] After addition of stop solution, measure OD 450 nm using the Victor 5 plate reader (0.1 second/well scan). […]
The test system of a further test is NFκB. Kind of test: NFκB-driven luciferase reporter in RAW 264.7 cells challenged with LPS. The settings on record: read-out: NFκB Inhibitory Activity, IC50 μM. The class given is cell-based, mouse. The method, then:
RAW 264.7 cells transfected with an NFκB-driven luciferase reporter are plated in 96 well plates. Cells are treated with Vehicle (0.1% ethanol) or test compounds for 2 hours. As a positive control for inhibition of NFκB signaling, 6 wells are treated with 10 μM dexamethasone. Cells are then challenged with 200 ng/mL LPS for 3 hours in the presence of test compounds. A subset of wells treated with vehicle should remain unstimulated with LPS to determine the floor signal of the assay. NFκB driven luciferase activity is developed by addition of BriteLite luciferase kit (Perkin-Elmer) and measured using a Victor V plate reader. NFκB activity (luciferase activity) for each treatment was normalized to Vehicle wells treated with LPS (% NFκB Response). AlamarBlue was used to monitor cell viability to ensure that inhibition of luciferase signal was not a result of compound cytotoxicity.
RAW 264.7 cells stably expressing a 3×NF-κB response element-driven luciferase reporter were seeded into 96 well plates. After 18 hours, cells were pre-treated with compounds of the invention for 2 hours, and then stimulated with LPS (lipopolysaccharide, 200 ng/mL) or vehicle control for 3 h in the presence of the compounds of the invention. A set of six vehicle was left unstimulated with LPS in order to measure the assay floor. AlamarBlue viability dye (Invitrogen) was added to cells simultaneously with the delivery of LPS (final AlamarBlue concentration of 10%). After the 3 h incubation period with LPS, cell viability was measured by reading fluorescence (excitation 550 nm, emission 595 nm) with a Perkin Elmer Victor V plate reader. Then cell media was aspirated from each well. Luciferase signal was then developed by addition of the Britelite Plus reagent (Perkin Elmer). Luciferase activity was measured with the Perkin Elmer Victor V plate reader. NF-κB activity was expressed as a percent of the vehicle control wells (stimulated with LPS). Compounds were tested at 6 dose point titrations in triplicate to determine IC50 values.

The mark [2] stands for this setting: Mus musculus, RAW264.7, 200 ng/mL LPS for 3 hours.

Where two headings read alike, the source gives them in different places.

In general, IC50 refers to the concentration that inhibits the measured activity by half. With `CC/C=C\C/C=C\C/C=C\C/C=C\C/C=C\C/C=C\CCC(=O)Nc1ccc(O)c(C(=O)O)c1` [III-1], the IC50 in test [1] (10 ng/mL LPS, 3 hours, TNFα ELISA, read-out: TNFα Secrection, IC50 μM) was 146 µM; in the test on NFκB (200 ng/mL LPS for 3 hours), less than 200 µM.

In the case of `CC/C=C\C/C=C\C/C=C\C/C=C\C/C=C\C/C=C\CCC(=O)NC(CC(C)C)C(=O)Oc1ccc(-c2ccc(F)cc2F)cc1C(=O)OCC` (stereo not shown) [Ii-4, ethyl 4-(2-(4Z,7Z,10Z,13Z,16Z,19Z)-docosa-4,7,10,13,16,19-hexaenamido-4-methylpentanoyloxy)-2′,4′-difluorobiphenyl-3-carboxylate], the half-maximal inhibitory concentration (IC50) in the test on NFκB (setting [2]) was more than 200 µM. On to `CC/C=C\C/C=C\C/C=C\C/C=C\C/C=C\C/C=C\CCC(=O)NC(CC(C)C)C(=O)Oc1cc(C(F)(F)F)ccc1C(=O)OCC` (stereo not shown) [Ii-5, ethyl 2-(2-(4Z,7Z,10Z,13Z,16Z,19Z)-docosa-4,7,10,13,16,19-hexaenamido-4-methylpentanoyloxy)-4-(trilluoromethyl)benzoate], for which the half-inhibitory concentration (IC50) with NFκB (setting [2]) was less than 200 µM. Turning to `O=C(O)c1ccccc1O` [SA, salicylic acid, reference compound], the 50% inhibitory concentration (IC50) with NFκB (setting [2]) was more than 200 µM. Still for that read-out and setting: for `CC/C=C\C/C=C\C/C=C\C/C=C\C/C=C\C/C=C\CCC(=O)Oc1cc(C(F)(F)F)ccc1C(=O)OCC` [VIc-3, ethyl 2-((4Z,7Z,10Z,13Z,16Z,19Z)-docosa-4,7,10,13,16,19-hexaenoyloxy)-4-(trilluoromethyl)benzoate] the value was less than 200 µM. For the molecule `O=C(O)c1ccccc1O` [salicylate, Salicylate], the “inhibition of the production of TNFα (in words, FIG. 2)” value in test [1] (LPS) is reported as “do not appreciably inhibit”.
